From the NIST ThermoML archive (doi:10.1016/j.fluid.2008.09.004)
± gives the expanded uncertainty stated by the source.

How the values were obtained:
[1] = molar heat capacity at constant pressure; xn = mol fraction of the nth substance listed; settings: 101 kPa, Liquid, Small sample (50 mg) DSC
[2] = xn = mol fraction of the nth substance listed; settings: 101 kPa, Liquid, Vibrating tube method

CCCCn1cc[n+](C)c1.COS(=O)(=O)[O-] [1-butyl-3-methylimidazolium methyl sulfate] + CCO
Settings	mass density, [2] [kg/m3]	molar heat capacity at constant pressure, [1] [J/K/mol]
293.15 K, x1 = 0.0511	860.9 ± 0.3	128.1 ± 2
293.15 K, x1 = 0.1025	916.2 ± 0.3	143.3 ± 2.2
293.15 K, x1 = 0.199	–	171.7 ± 2.7
293.15 K, x1 = 0.2016	995 ± 0.2	–
293.15 K, x1 = 0.3106	1055 ± 0.2	204.1 ± 3.2
293.15 K, x1 = 0.4058	1093.4 ± 0.2	232.2 ± 3.6
293.15 K, x1 = 0.5057	1124.7 ± 0.2	262.1 ± 4.1
293.15 K, x1 = 0.6005	1147.9 ± 0.2	290.9 ± 4.5
293.15 K, x1 = 0.69	1166.6 ± 0.2	318.2 ± 4.9
293.15 K, x1 = 0.7834	1182.5 ± 0.2	346.9 ± 5.4
293.15 K, x1 = 0.8815	1196.6 ± 0.2	377.1 ± 5.8
293.15 K, x1 = 0.9368	1203.5 ± 0.2	394 ± 6.1
298.15 K, x1 = 0.0511	856.7 ± 0.3	130 ± 2
298.15 K, x1 = 0.1025	912.2 ± 0.3	145.1 ± 2.2
298.15 K, x1 = 0.199	–	173.4 ± 2.7
298.15 K, x1 = 0.2016	991.2 ± 0.2	–
298.15 K, x1 = 0.3106	1051.3 ± 0.2	205.8 ± 3.2
298.15 K, x1 = 0.4058	1089.8 ± 0.2	234 ± 3.6
298.15 K, x1 = 0.5057	1121.2 ± 0.2	263.9 ± 4.1
298.15 K, x1 = 0.6005	1144.5 ± 0.2	292.8 ± 4.5
298.15 K, x1 = 0.69	1163.1 ± 0.2	320.3 ± 5
298.15 K, x1 = 0.7834	1179.1 ± 0.2	349.1 ± 5.4
298.15 K, x1 = 0.8815	1193.2 ± 0.2	379.5 ± 5.9
298.15 K, x1 = 0.9368	1200.2 ± 0.2	396.5 ± 6.1
303.15 K, x1 = 0.0511	852.6 ± 0.3	131.8 ± 2
303.15 K, x1 = 0.1025	908.2 ± 0.3	146.7 ± 2.3
303.15 K, x1 = 0.199	–	174.9 ± 2.7
303.15 K, x1 = 0.2016	987.4 ± 0.2	–
303.15 K, x1 = 0.3106	1047.6 ± 0.2	207.2 ± 3.2
303.15 K, x1 = 0.4058	1086.3 ± 0.2	235.6 ± 3.7
303.15 K, x1 = 0.5057	1117.7 ± 0.2	265.6 ± 4.1
303.15 K, x1 = 0.6005	1141 ± 0.2	294.7 ± 4.6
303.15 K, x1 = 0.69	1159.7 ± 0.2	322.3 ± 5
303.15 K, x1 = 0.7834	1175.7 ± 0.2	351.2 ± 5.4
303.15 K, x1 = 0.8815	1189.9 ± 0.2	381.7 ± 5.9
303.15 K, x1 = 0.9368	1196.9 ± 0.2	398.9 ± 6.2
308.15 K, x1 = 0.0511	848.5 ± 0.3	133.5 ± 2.1
308.15 K, x1 = 0.1025	904.3 ± 0.3	148.3 ± 2.3
308.15 K, x1 = 0.199	–	176.4 ± 2.7
308.15 K, x1 = 0.2016	983.6 ± 0.2	–
308.15 K, x1 = 0.3106	1043.9 ± 0.2	208.6 ± 3.2
308.15 K, x1 = 0.4058	1082.7 ± 0.2	237.1 ± 3.7
308.15 K, x1 = 0.5057	1114.2 ± 0.2	267.3 ± 4.1
308.15 K, x1 = 0.6005	1137.6 ± 0.2	296.5 ± 4.6
308.15 K, x1 = 0.69	1156.3 ± 0.2	324.2 ± 5
308.15 K, x1 = 0.7834	1172.3 ± 0.2	353.3 ± 5.5
308.15 K, x1 = 0.8815	1186.6 ± 0.2	383.9 ± 5.9
308.15 K, x1 = 0.9368	1193.6 ± 0.2	401.2 ± 6.2
313.15 K, x1 = 0.0511	844.4 ± 0.3	135 ± 2.1
313.15 K, x1 = 0.1025	900.2 ± 0.3	149.7 ± 2.3
313.15 K, x1 = 0.199	–	177.6 ± 2.8
313.15 K, x1 = 0.2016	979.8 ± 0.3	–
313.15 K, x1 = 0.3106	1040.3 ± 0.2	209.9 ± 3.3
313.15 K, x1 = 0.4058	1079.1 ± 0.2	238.5 ± 3.7
313.15 K, x1 = 0.5057	1110.7 ± 0.2	268.9 ± 4.2
313.15 K, x1 = 0.6005	1134.1 ± 0.2	298.2 ± 4.6
313.15 K, x1 = 0.69	1152.9 ± 0.2	326.1 ± 5.1
313.15 K, x1 = 0.7834	1169 ± 0.2	355.3 ± 5.5
313.15 K, x1 = 0.8815	1183.3 ± 0.2	386 ± 6
313.15 K, x1 = 0.9368	1190.3 ± 0.2	403.3 ± 6.2
318.15 K, x1 = 0.0511	840.1 ± 0.3	136.6 ± 2.1
318.15 K, x1 = 0.1025	896.1 ± 0.3	151 ± 2.3
318.15 K, x1 = 0.199	–	178.8 ± 2.8
318.15 K, x1 = 0.2016	975.9 ± 0.3	–
318.15 K, x1 = 0.3106	1036.6 ± 0.2	211.2 ± 3.3
318.15 K, x1 = 0.4058	1075.5 ± 0.2	239.8 ± 3.7
318.15 K, x1 = 0.5057	1107.2 ± 0.2	270.5 ± 4.2
318.15 K, x1 = 0.6005	1130.7 ± 0.2	299.9 ± 4.6
318.15 K, x1 = 0.69	1149.5 ± 0.2	327.9 ± 5.1
318.15 K, x1 = 0.7834	1165.6 ± 0.2	357.3 ± 5.5
318.15 K, x1 = 0.8815	1180 ± 0.2	388 ± 6
318.15 K, x1 = 0.9368	1187 ± 0.2	405.4 ± 6.3
